Data as given in article PMC8373216, “Development and Preclinical Evaluation of New Inhaled Lipoglycopeptides for the Treatment of Persistent Pulmonary Methicillin-Resistant Staphylococcus aureus Infections” (Antimicrobial Agents and Chemotherapy, 2021).
Converted amounts (≈) assume the structure as drawn. Where two headings read alike, the source gives them in different places.

Assays:
[1] = tested on: MRSA ATCC BAA 1556 (USA300); assay: In-house broth microdilution MIC screening; type: cell-based, Staphylococcus aureus; conditions: for MIC: Staphylococcus aureus, read-out: MIC Value, MRSA ATCC BAA 1556
MSSA ATCC 29213 = assay: In-house broth microdilution MIC screening; type: cell-based; conditions: Staphylococcus aureus, read-out: MIC Value, MSSA ATCC 29213
[2] = MRSA and MSSA isolates of Table 1

Row | SMILES | MIC ([1]; broth microdilution) | MIC (MSSA ATCC 29213; broth microdilution) | also measured
1 | CCCCCCCCCCOC(=O)CNC1(C)CC(OC2C(Oc3c4cc5cc3Oc3ccc(cc3Cl)C(O)C3NC(=O)C(NC(=O)C5NC(=O)C(CC(N)=O)NC(=O)C(NC(=O)C(CC(C)C)NC)C(O)c5ccc(c(Cl)c5)O4)c4ccc(O)c(c4)-c4c(O)cc(O)cc4C(C(=O)O)NC3=O)OC(CO)C(O)C2O)OC(C)C1O (centres unmarked) [RV55] | 0.25 µg/mL (≈ 0.152 µM) | 0.25 µg/mL (≈ 0.152 µM) | –
2 | CCCCCCCCCCCCCCCC(=O)OCCNC1(C)CC(OC2C(Oc3c4cc5cc3Oc3ccc(cc3Cl)C(O)C3NC(=O)C(NC(=O)C5NC(=O)C(CC(N)=O)NC(=O)C(NC(=O)C(CC(C)C)NC)C(O)c5ccc(c(Cl)c5)O4)c4ccc(O)c(c4)-c4c(O)cc(O)cc4C(C(=O)O)NC3=O)OC(CO)C(O)C2O)OC(C)C1O (centres unmarked) [RV89] | 1 µg/mL (≈ 0.577 µM) | 0.5 µg/mL (≈ 0.289 µM) | –
3 | CCCCCCCC(=O)OCCNC1(C)CC(OC2C(Oc3c4cc5cc3Oc3ccc(cc3Cl)C(O)C3NC(=O)C(NC(=O)C5NC(=O)C(CC(N)=O)NC(=O)C(NC(=O)C(CC(C)C)NC)C(O)c5ccc(c(Cl)c5)O4)c4ccc(O)c(c4)-c4c(O)cc(O)cc4C(C(=O)O)NC3=O)OC(CO)C(O)C2O)OC(C)C1O (centres unmarked) [RV90] | – | – | MIC [1]: 0.25 µg/mL (≈ 0.154 µM); MIC (MSSA ATCC 29213): 0.25 µg/mL (≈ 0.154 µM)
4 | CCCCCCCCCCCCCCCC(=O)NCCNC1(C)CC(OC2C(Oc3c4cc5cc3Oc3ccc(cc3Cl)C(O)C3NC(=O)C(NC(=O)C5NC(=O)C(CC(N)=O)NC(=O)C(NC(=O)C(CC(C)C)NC)C(O)c5ccc(c(Cl)c5)O4)c4ccc(O)c(c4)-c4c(O)cc(O)cc4C(C(=O)O)NC3=O)OC(CO)C(O)C2O)OC(C)C1O (centres unmarked) [RV91] | 0.25 µg/mL (≈ 0.144 µM) | 0.188 µg/mL (≈ 0.109 µM) | –
5 | CCCCCCCCCCCCNC(=O)CNC1(C)CC(OC2C(Oc3c4cc5cc3Oc3ccc(cc3Cl)C(O)C3NC(=O)C(NC(=O)C5NC(=O)C(CC(N)=O)NC(=O)C(NC(=O)C(CC(C)C)NC)C(O)c5ccc(c(Cl)c5)O4)c4ccc(O)c(c4)-c4c(O)cc(O)cc4C(C(=O)O)NC3=O)OC(CO)C(O)C2O)OC(C)C1O (centres unmarked) [RV95] | 0.031 µg/mL (≈ 0.0185 µM) | 0.031 µg/mL (≈ 0.0185 µM) | MIC potency, fold less potent than RV40 [1, 2]: ~2 fold; MIC potency, fold more potent than telavancin [1, 2]: ~2 fold; MIC potency, fold more potent than vancomycin [1, 2]: approximately 30 fold

Continued by falling MIC ([1]; broth microdilution), values first:

Row | MIC ([1]; broth microdilution) | MIC (MSSA ATCC 29213; broth microdilution) | SMILES | also measured
6 | 0.167 µg/mL (≈ 0.101 µM) | 0.146 µg/mL (≈ 0.0886 µM) | CCCCCCCCCC(=O)OCCNC1(C)CC(OC2C(Oc3c4cc5cc3Oc3ccc(cc3Cl)C(O)C3NC(=O)C(NC(=O)C5NC(=O)C(CC(N)=O)NC(=O)C(NC(=O)C(CC(C)C)NC)C(O)c5ccc(c(Cl)c5)O4)c4ccc(O)c(c4)-c4c(O)cc(O)cc4C(C(=O)O)NC3=O)OC(CO)C(O)C2O)OC(C)C1O (centres unmarked) [RV54] | –
7 | 0.125 µg/mL (≈ 0.0772 µM) | 0.125 µg/mL (≈ 0.0772 µM) | CCCCCCCC(=O)NCCNC1(C)CC(OC2C(Oc3c4cc5cc3Oc3ccc(cc3Cl)C(O)C3NC(=O)C(NC(=O)C5NC(=O)C(CC(N)=O)NC(=O)C(NC(=O)C(CC(C)C)NC)C(O)c5ccc(c(Cl)c5)O4)c4ccc(O)c(c4)-c4c(O)cc(O)cc4C(C(=O)O)NC3=O)OC(CO)C(O)C2O)OC(C)C1O (centres unmarked) [RV93] | –
8 | 0.094 µg/mL (≈ 0.0561 µM) | 0.063 µg/mL (≈ 0.0376 µM) | CCCCCCCCCCCC(=O)OCCNC1(C)CC(OC2C(Oc3c4cc5cc3Oc3ccc(cc3Cl)C(O)C3NC(=O)C(NC(=O)C5NC(=O)C(CC(N)=O)NC(=O)C(NC(=O)C(CC(C)C)NC)C(O)c5ccc(c(Cl)c5)O4)c4ccc(O)c(c4)-c4c(O)cc(O)cc4C(C(=O)O)NC3=O)OC(CO)C(O)C2O)OC(C)C1O (centres unmarked) [RV65] | –
9 | 0.063 µg/mL (≈ 0.0383 µM) | 0.063 µg/mL (≈ 0.0383 µM) | CCCCCCCCCC(=O)NCCNC1(C)CC(OC2C(Oc3c4cc5cc3Oc3ccc(cc3Cl)C(O)C3NC(=O)C(NC(=O)C5NC(=O)C(CC(N)=O)NC(=O)C(NC(=O)C(CC(C)C)NC)C(O)c5ccc(c(Cl)c5)O4)c4ccc(O)c(c4)-c4c(O)cc(O)cc4C(C(=O)O)NC3=O)OC(CO)C(O)C2O)OC(C)C1O (centres unmarked) [RV56] | –
10 | 0.031 µg/mL (≈ 0.0182 µM) | 0.023 µg/mL (≈ 0.0135 µM) | CCCCCCCCCCCCCC(=O)NCCNC1(C)CC(OC2C(Oc3c4cc5cc3Oc3ccc(cc3Cl)C(O)C3NC(=O)C(NC(=O)C5NC(=O)C(CC(N)=O)NC(=O)C(NC(=O)C(CC(C)C)NC)C(O)c5ccc(c(Cl)c5)O4)c4ccc(O)c(c4)-c4c(O)cc(O)cc4C(C(=O)O)NC3=O)OC(CO)C(O)C2O)OC(C)C1O (centres unmarked) [RV92] | –
